For data set [1], the system named is MCF-7 (human breast cancer cells). The experiment in a line: In vitro anti-tumor cell proliferation activity (MTT method), MCF-7. Type of data set: cell-based. Particulars: MCF-7; 48 h; Mean ± SD; read-out: IC50 values of in vitro anti-cell proliferation activity. (Tetrazolium assays rely on reduction of a dye to a coloured formazan, in cell work by metabolically active cells.)
Description: (§2) Tested cell lines S180 (mouse ascites tumor cells), LLC (mouse lung cancer cells), A549 (human non-small cell lung cancer cells), HCT116 (human colon cancer cells), U2Os (human osteosarcoma cells), and MCF-7 (human breast cancer cells) each were purchased from Nanjing KeyGen Biotech.
(§3) When preparing a test sample, the test compound was prepared into a sample solution with a concentration of 500 μM (with a final concentration 100 μM) by a PBS buffer containing 0.5% DMSO, which was used for preliminary screening of an anti-cell proliferation experiment in vitro.
(§4) Positive control group: doxorubicin, prepared to a required concentration with PBS buffer containing 0.5% DMSO; negative control group: a PBS buffer containing 0.5% DMSO; blank group: a PBS buffer containing 0.01% DMSO.

Data set [2] is described as follows: Nanomorphology characterization and stability (TEM, SEM, hydration particle size, Zeta potential). Type of data set: physicochemical. From the text:
The nanomorphology of compounds ZD-B and ZD-E-1 were studied by TEM and SEM, and hydration particle size and Zeta potential of the two compounds in a solution were studied by a nanometer particle size analyzer. The results were shown in FIG. 1A-H. In FIG. 1A-H, FIG. 1A was a TEM image of the compound ZD-B; FIG. 1B was a TEM image of the compound ZD-E-1; FIG. 1C was a SEM image of the compound ZD-B; FIG. 1D was a SEM image of the compound ZD-E-1; FIG. 1E was a hydration particle size change curve of the compound ZD-B in solutions at different pH values within 72 h (0.5 h, 24 h, 48 h, and 72 h); FIG. 1F was a hydration particle size change curve of the compound ZD-E-1 in solutions at different pH solutions within 72 h; FIG. 1G was a Zeta potential change curve of the compound ZD-B in solutions at different pH values within 72 h; and FIG. 1H was a Zeta potential change curve of the compound ZD-E-1 in solutions at different pH values within 72 h.

Data set [3] relates to A549 (human non-small cell lung cancer cells). The experiment in a line: In vitro anti-tumor cell proliferation activity (MTT method), A549. The format is cell-based. The following applies: A549; 48 h; Mean ± SD; read-out: IC50 values of in vitro anti-cell proliferation activity.
Description: as §2, §3, §4
A further data set can be described thus: Water solubility. Type of data set: physicochemical. Particulars: decides the injection route.
Data set [4] in a line: Viscera-weight ratio / toxicity in tumor-bearing mice. Type of data set: in vivo, male ICR mice. Particulars: for Effect on liver weight (viscera-weight ratio) compared with Vehicle group / Effect on brain weight (viscera-weight ratio) compared with Vehicle group: FIG. 5; for Effect on liver weight (viscera-weight ratio) compared with Vehicle group: ZD-E-1 at high dosages (10 μmol/kg and 5 μmol/kg); for Effect on brain weight (viscera-weight ratio) compared with Vehicle group: ZD-E-1 at three dosages. How it is done: (§1) The specific method included: drugs were administered to tumor-forming mice by group for 7 consecutive days, a length of the tumor was measured every other day to calculate a tumor volume. 24 h after the last administration, the mice were weighed, anesthetized with diethyl ether, and eyeballs were removed to collect blood; the obtained whole blood was centrifuged at 1,000 rpm for 10 min, and a serum was absorbed for later use. The mice were sacrificed by neck dislocation, and the tumor mass and various organs were stripped and weighed (it was ensured that the operation was done as soon as possible and the stripping was complete and clean). The tumor inhibition rate was calculated by formula b, the results were shown in Table 2 and FIG. 2; and by calculating a viscera-weight ratio of each organ, and it was analyzed whether the test compound had obvious physiological effects on the mouse organs.
After a preliminary study on the in vivo anti-tumor growth activity of different amino acid main compounds, ZD-A, ZD-B, ZD-E-1, and ZD-E-1 with an increased side-chain methylene unit (ZD-F-1) were selected; three dosages of 10 μmol/kg, 5 μmol/kg, and 2 μmol/kg were set to evaluate the inhibitory ability of the four compounds on tumor growth in mice. […] Afterwards, the tumor growth trend and the viscera-weight ratio of the two compounds on mice were analyzed to compare the anti-tumor growth ability and toxicity of the two compounds. The results were shown in FIG. 4 and FIG. 5: after one-way analysis of variance, * meant that compared with the Vehicle group, there was a difference, P<0.05; ** represented a significant difference compared with the Vehicle group, P<0.01.

The test system of data set [5] is LLC (mouse lung cancer cells). The experiment in a line: In vitro anti-tumor cell proliferation activity (MTT method), LLC. The format is cell-based. Particulars: LLC; 48 h; Mean ± SD; read-out: IC50 values of in vitro anti-cell proliferation activity.
Description: as §2, §3, §4
In data set [6] the test system is S180 (mouse ascites tumor cells). Kind of data set: In vitro anti-tumor cell proliferation activity (MTT method), S180. The following applies: S180; 48 h; Mean ± SD; read-out: IC50 values of in vitro anti-cell proliferation activity. The format is cell-based.
Description: as §2, §3, §4
The subject of another data set is mouse S180 sarcoma model. Kind of data set: Inhibition of tumor growth in vivo (mouse S180 sarcoma model). The arrangement: species or system male ICR mice. The following applies: for Tumor growth trend in mice: FIG. 4, ZD-E-1 versus ZD-F-1; for Average tumor weight: Mean ± SD, n 10. How it is done: The mice used in the experiment were male ICR mice of SPF grade, weighing 20 g±2 g, purchased from Beijing Vital River Laboratory Animal Technology Co., Ltd., and raised in an animal barrier of the Experimental Animal Department of Capital Medical University.
as §1

In data set [7] the test system is HCT116 (human colon cancer cells). Kind of data set: In vitro anti-tumor cell proliferation activity (MTT method), HCT116. Type of data set: cell-based. The following applies: HCT116; 48 h; Mean ± SD; read-out: IC50 values of in vitro anti-cell proliferation activity.
Description: as §2, §3, §4
Data set [8] has as its system U2Os (human osteosarcoma cells). Kind of data set: In vitro anti-tumor cell proliferation activity (MTT method), U2Os. Type of data set: cell-based. Particulars: U2Os; 48 h; Mean ± SD; read-out: IC50 values of in vitro anti-cell proliferation activity.
Description: as §2, §3, §4
[9] abbreviates: Table 2, 10 μmol/kg, ip, 7 consecutive days.
[10] abbreviates: three dosages 10, 5, 2 μmol/kg, iv.

For `N=C(CCl)NCCC[C@H](Nc1ccc([N+](=O)[O-])c2nonc12)C(=O)NCc1ccccc1` [ZD-E-1, (S)—N-benzyl-5-(2-chloroacetimido)-2-((7-nitro-2,1,3-benzoxadiazol-4-yl)amino)pentaneamide], the IC50 in [1] is 40.5 ± 1.91 µM; in data set [3], 45.5 ± 0.672 µM; in data set [5], 26.1 ± 2.58 µM; in data set [6] it was 24.6 ± 1.72 µM; in data set [7] it was 22.6 ± 1.45 µM; in data set [8] it was 28.8 ± 1.14 µM. Further, the “Nanomorphology (shape)” value in data set [2] (TEM and SEM) is recorded as “shape of a ball”. For the same molecule, the “Hydration particle size change” value in data set [2] (pH=2.0, measured continuously for 72 h) was “particle size hardly changed”; in data set [2] (pH=5.5, measured continuously for 72 h), “particle size increased and then decreased”. For the same molecule, in data set [2] (pH=7.0 versus other pH values, 72 h), the Hydration particle size entry is listed as “smallest particle size at pH=7.0”. In data set [2] (solutions at different pH values, measured continuously for 72 h), the Zeta potential change entry is “neither ZD-B nor ZD-E-1 had an obvious change”. In the data set “Water solubility”, the Water solubility entry is “had no such concerns”. For the same molecule, the “Effect on liver weight (viscera-weight ratio) compared with Vehicle group” value in data set [4] was “different from those in the Vehicle group”. Also, the “Effect on brain weight (viscera-weight ratio) compared with Vehicle group” value in [4] was “different from those in the Vehicle group”. The Toxic side effects result in data set [4] (mice, compared with ZD-F-1) is “more obvious toxic side effects, causing liver failure and brain lesions in mice”. In addition, the “Anti-tumor growth activity (in words)” value is “most prominent activities” with mouse S180 sarcoma model (10 μmol/kg, ip); “desirable and stable anti-tumor growth activity” with mouse S180 sarcoma model (setting [10]). The “Average tumor weight compared with Vehicle group (one-way analysis of variance)” value is recorded as “significantly different from that of Vehicle group” in the data set on mouse S180 sarcoma model (10 μmol/kg, ip) and “significant differences compared with the Vehicle group” with mouse S180 sarcoma model (setting [10]). The “Tumor growth trend in mice” value in the data set with mouse S180 sarcoma model is “roughly the same”. For the same molecule, the Tumor Inhibition Rate in the data set on mouse S180 sarcoma model (setting [9]) is 40.01%; with mouse S180 sarcoma model (Table 3, 2 μmol/kg, iv), 39.23%; in the data set with mouse S180 sarcoma model (Table 3, 5 μmol/kg, iv) it was 41.65%; with mouse S180 sarcoma model (Table 3, 10 μmol/kg, iv), 42.73%. Besides, the Average tumor weight in the data set on mouse S180 sarcoma model (setting [9]) was determined as 1.072 ± 0.386 g; in the data set on mouse S180 sarcoma model (Table 3, 2 μmol/kg, iv) it was 1.042 ± 0.205 g; with mouse S180 sarcoma model (Table 3, 5 μmol/kg, iv), 1.001 ± 0.196 g; in the data set with mouse S180 sarcoma model (Table 3, 10 μmol/kg, iv) it was 0.982 ± 0.300 g. Also, the “Average tumor weight compared with the YW3-56 group” value with mouse S180 sarcoma model (setting [10]) is given as “no difference compared with the YW3-56 group”.
Take `N=C(CCl)NCCCC[C@H](Nc1ccc([N+](=O)[O-])c2nonc12)C(=O)NCc1ccccc1` [ZD-F-1, NBD-Lys(C1)-NBzl]: the IC50 is 68.7 ± 1.5 µM in data set [1]; greater than 100 µM in data set [3]; greater than 100 µM in data set [5]; 23.7 ± 2.29 µM in data set [6]; 38.9 ± 2.05 µM in data set [7]; 45.7 ± 1.68 µM in data set [8]. In addition, the Water solubility entry in the data set “Water solubility” is recorded as “had no such concerns”. For the same molecule, in data set [4], the “Effect on liver weight (viscera-weight ratio) compared with Vehicle group” value was “no difference”. The “Effect on brain weight (viscera-weight ratio) compared with Vehicle group” value in data set [4] is given as “no difference”. In addition, the “Tumor growth trend in mice” value in the data set with mouse S180 sarcoma model was “roughly the same”. Besides, the “Tumor Inhibition Rate” value is listed as 13.32% in the data set with mouse S180 sarcoma model (Table 3, 2 μmol/kg, iv); 30.54% in the data set with mouse S180 sarcoma model (Table 3, 5 μmol/kg, iv); 39.99% in the data set with mouse S180 sarcoma model (Table 3, 10 μmol/kg, iv). The Average tumor weight in the data set with mouse S180 sarcoma model (Table 3, 2 μmol/kg, iv) was determined as 1.487 ± 0.660 g; with mouse S180 sarcoma model (Table 3, 5 μmol/kg, iv), 1.191 ± 0.407 g; in the data set on mouse S180 sarcoma model (Table 3, 10 μmol/kg, iv) it was 1.029 ± 0.423 g.

The values above are taken from patent US12673120B2, “Fluorescently-traceable amino acid derivative and preparation methods and use thereof” (priority 2020, dated 2026).
